Molecules are shown by their SMILES.

In the assay the target is JAK1 (Homo sapiens (Human), UniProt P23458). Description: Cellular JAK1 assay: IL-6-mediated STAT3 phosphorylation in TF-1 cells. The assay is classed as cell-based. Conditions: IL-6 stimulation, STAT3 phosphorylation at Tyr705 (AlphaLISA), read-out: Inhibitory Activity Against JAK1 IC50. The procedure: The cellular potency of a compound on JAK1 or JAK2 inhibition is determined by measuring the cytokine-mediated phosphorylation of STAT proteins in TF-1 cells.
Human cytokines of IL-6 (R&D Systems, Cat. No. 206-IL-010/CF) and GM-CSF (R&D Systems, Cat. No. 215-GM-010/CF) are reconstituted at 10 μg/mL in D-PBS containing 0.1% BSA (Sigma, Cat. No. A8577) and human EPO (R&D Systems, Cat. No. 287-TC-500) at 500 U/mL in D-PBS containing 0.1% BSA. TF-1 cells (ATCC, CRL-2003) were grown in RPMI1640 (ATCC, Cat. No. 30-2001) supplemented with 2 ng/mL of recombinant human GM-CSF, 10% FBS (Gibco, Cat. No. 10437-028), and 100 U/mL penicillin-streptomycin (Gibco, Cat. No. 15140-122). The cells were maintained and propagated between 1×10^5 cells/mL to 7.5×10^5 cells/mL. Aliquots of the cells from early passages were preserved for liquid nitrogen storage. Frozen vials of the cells were thawed at 37° C. water bath. The cells were spun to remove freezing medium. The newly revived frozen cells were adapted in culture for 5-7 days before used for compound testing. The cells used in for compound testing were less than 20 subculture passages or 3 months in culture.
To test compounds, the TF-1 cells were harvested at a density of 3 to 7×10^5 cells/mL by centrifugation. After removing the culture medium, the resulting cell pellet was suspended and washed once by centrifugation with HBSS buffer (Gibco, Cat. No. 14025-092) containing 0.1% BSA. The cell pellet was resuspended in HBSS buffer at 7.5×10^6 cells/mL. Four micro-liters of the cells (3×10^4 cells in total) were added to each well of a white 384-well plate (Packard, Cat. No. 6005214).
The compounds were first diluted in dimethylsulfoxide (DMSO) (Sigma, Cat. No. D2650) to generate 9 3-fold diluted dosing concentrations in a 96-well polypropylene plate (Corning, Cat. No. 3365), followed by addition of HBSS buffer for another 125-fold dilution. To the cells, 2 μL of the diluted compounds were added and mixed by tapping the plate several times. The cells were incubated for 2 hrs of treatment. DMSO was used as a control and similarly diluted along and added to the cells.
To assay JAK1 inhibition, 2 μL of IL-6 diluted at 400 ng/mL (4×) in HBSS containing 0.1% BSA was added to the treated cells. The cells were then incubated for 30 min of cytokine treatment and lysed at the end by addition of 2 μL of 5×AlphaLISA SureFire Ultra lysis buffer from Perkin Elmer. The plate was agitated on a plate shaker for 10 min at room temperature. The cellular JAK1 activity was determined by measuring STAT3 phosphorylation at Tyr705 in lysates using the AlphaLISA SureFire Ultra kit (Perkin Elmer, Cat. No. ALSU-PST3-A500). A volume of 5 μL of acceptor mix and donor mix was added sequentially to lysates following the product protocol. The assay signals were recorded on EnVision plate reader (Perkin Elmer) with AlphaScreen optics setting.
The results are summarized in Table 3, where A represents a value no greater than 500 nM, B represents a value greater than 500 nM but no greater than 1 μM, C represents a value greater than 1 μM but no greater than 5 μM, and D represents a value greater than 5 μM.

Sequence of JAK1 (P23458 whole entry): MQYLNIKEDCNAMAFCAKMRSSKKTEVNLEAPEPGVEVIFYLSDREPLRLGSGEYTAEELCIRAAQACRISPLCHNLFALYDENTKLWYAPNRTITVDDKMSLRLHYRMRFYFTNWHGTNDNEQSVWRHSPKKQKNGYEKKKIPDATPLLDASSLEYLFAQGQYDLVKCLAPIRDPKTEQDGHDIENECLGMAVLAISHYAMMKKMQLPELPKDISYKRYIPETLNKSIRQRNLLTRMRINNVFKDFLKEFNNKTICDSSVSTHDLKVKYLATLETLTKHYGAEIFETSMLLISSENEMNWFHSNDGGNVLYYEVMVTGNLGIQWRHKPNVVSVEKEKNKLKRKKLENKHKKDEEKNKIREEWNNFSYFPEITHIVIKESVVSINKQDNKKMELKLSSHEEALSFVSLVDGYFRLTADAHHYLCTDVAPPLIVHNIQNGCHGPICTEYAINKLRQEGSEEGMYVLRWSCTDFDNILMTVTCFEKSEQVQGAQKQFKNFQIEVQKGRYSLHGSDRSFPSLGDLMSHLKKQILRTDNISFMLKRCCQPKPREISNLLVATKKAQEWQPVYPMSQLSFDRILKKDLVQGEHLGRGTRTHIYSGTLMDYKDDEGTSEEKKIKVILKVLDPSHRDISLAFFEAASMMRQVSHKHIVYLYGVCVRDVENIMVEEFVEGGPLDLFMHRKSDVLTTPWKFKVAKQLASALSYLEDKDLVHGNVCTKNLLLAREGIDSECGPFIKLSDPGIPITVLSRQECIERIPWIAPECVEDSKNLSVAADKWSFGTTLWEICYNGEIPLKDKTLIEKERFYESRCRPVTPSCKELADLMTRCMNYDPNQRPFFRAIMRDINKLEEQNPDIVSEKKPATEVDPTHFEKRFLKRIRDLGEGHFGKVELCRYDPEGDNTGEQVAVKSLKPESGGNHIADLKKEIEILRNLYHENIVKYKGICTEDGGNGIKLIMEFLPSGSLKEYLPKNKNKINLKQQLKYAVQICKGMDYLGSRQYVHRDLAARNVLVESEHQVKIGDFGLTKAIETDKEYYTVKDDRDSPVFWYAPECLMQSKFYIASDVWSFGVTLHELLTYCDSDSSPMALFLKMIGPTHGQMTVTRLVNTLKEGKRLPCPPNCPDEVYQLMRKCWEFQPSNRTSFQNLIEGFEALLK

The term IC50 denotes the point on the concentration scale where inhibition reaches its midpoint. Regarding `O=C(Nc1cn2c(-c3ccc(CN4CCS(=O)(=O)CC4)cc3F)cccc2n1)C1CC1` [Compound 14], the IC50 is ≤ 500 nM.

These data come from patent US10730875B2, “Substituted imidazo[1,2-A]pyridin-2-ylamine compounds, and pharmaceutical compositions and methods of use thereof” (JN Therapeutics, priority 2015, dated 2020).
